How the values were obtained:
Experiment in all cases: Greenhouse post-emergence spray, plant damage rating
Type in all cases: in vivo
[1] = system: Avena sativa (oats); conditions: A. sativa, alone and combined
Protocol: (§1) Three species of weed, used in each test: Hypochoeris radicata (false dandelion), Sinapis, arvensis (wild mustard), and Avena sativa (oats), were grown in a greenhouse facility in 5.5 cm square pots using a potting soil mix comprising peat, vermiculite, sand, and 4-10-10 fertilizer. Water-soluble 20-20-20 fertilizer was used as a supplement for the plants as required. The plants were selected for use based on uniformity and quality and were potted separately. One plant per pot each of H. radicata (6–10 leaves) and S. arvensis (4–6 leaves) were used. Six to eight plants of A. sativa (2–4 leaves) were used per pot. After spraying with a herbicidal composition (as described below) the pots were arranged in a randomized complete block design in sub-irrigated watering trays. Six to ten replicates (pots) were used per treatment.
(§2) Herbicidal treatments were applied using a spray chamber fitted with a TeeJet 8006E flat fan nozzle (available from Spraying Systems Co., Wheaton, Ill.), calibrated to spray at a volume of 60 gpa at 40 psi. Treatment solutions were freshly prepared for each experiment. Plant damage was assessed at 10 to 14 days after treatment using a pre-transformed 0–10 rating scale (0 representing no damage, 10 representing plant death) in accordance with the procedure outlined in Statistical Methods in Agricultural Research, Little, T. M. et al, J. Wiley and Sons, 1975, pp. 119–120, 218.

[2] = system: Sinapis arvensis (wild mustard); conditions: S. arvensis, alone and combined
Protocol: as §1, §2

[3] = system: Hypochoeris radicata (false dandelion); conditions: H. radicata, alone and combined
Protocol: as §1, §2

[4] = Table 3 set 1: Round-Up 0.1%, Potassium pelargonate 0.1%
[5] = Table 3 set 2: Round-Up 0.1%, Potassium pelargonate 0.5%
[6] = Table 3 set 3: Round-Up 0.1%, Potassium pelargonate 0.5% (so in the source)

CCCCCCCCC(=O)[O-].[K+] [Potassium pelargonate]
Phytotoxicity (%) Observed [1, 4]: 6%
Phytotoxicity (%) Observed [1, 5]: 5%
Phytotoxicity (%) Observed [1, 6]: 7%
Phytotoxicity (%) Observed [2, 4]: 0%
Phytotoxicity (%) Observed [2, 5]: 0%
Phytotoxicity (%) Observed [2, 6]: 2%
Phytotoxicity (%) Observed [3, 4]: 0%
Phytotoxicity (%) Observed [3, 5]: 0%
Phytotoxicity (%) Observed [3, 6]: 3%

Source: US6930075B1, “Fatty acid-based herbicidal composition” (priority 1990, dated 2005)
